Results taken from patent US4291164A, “Cephalosporin analogs and methods for production thereof” (Kyowa Hakko Kogyo Co., Ltd., priority 1978, dated 1981).
Values after ≈ are worked out from the molar mass of the structure shown.

Columns and labels:
[1] = J. Am. Chem. Soc. 96, 7584 (1974); J. Med. Chem. 20, 551; cited from earlier work
[2] = system: Staphylococcus aureus KY4279; assay: Antibacterial activity, regular agar dilution, Staphylococcus aureus KY4279; assay type: cell-based; conditions: pH 7.0
Description: (§1) The antibacterial activity of (±)-cis-2-carboxy-7-[2-(thiophene-2-yl)acetylamino]-1-azabicyclo[4,2,0]oct-2-en-8-one obtained in Example 21 above is set forth below. The activity is determined by the regular agar dilution at pH 7.0.

Erwinia aroides KY3241 = assay: Antibacterial activity, regular agar dilution, Erwinia aroides KY3241; assay type: cell-based; conditions: pH 7.0
Description: as §1

Vibrio percolans KY4174 = assay: Antibacterial activity, regular agar dilution, Vibrio percolans KY4174; assay type: cell-based; conditions: Comamonas terrigena, pH 7.0
Description: as §1

Escherichia coli KY4271 = assay: Antibacterial activity, regular agar dilution, Escherichia coli KY4271; assay type: cell-based; conditions: pH 7.0
Description: as §1

[3] = system: Klebsiella penumoniae KY4275; assay: Antibacterial activity, regular agar dilution, Klebsiella penumoniae KY4275; assay type: cell-based; conditions: pH 7.0
Description: as §1

Proteus vulgaris KY4277 = assay: Antibacterial activity, regular agar dilution, Proteus vulgaris KY4277; assay type: cell-based; conditions: pH 7.0
Description: as §1

[4] = system: Salmonella typhosa KY4278; assay: Antibacterial activity, regular agar dilution, Salmonella typhosa KY4278; assay type: cell-based; conditions: Salmonella enterica, pH 7
Description: as §1

Shigella sonnei KY4281 = assay: Antibacterial activity, regular agar dilution, Shigella sonnei KY4281; assay type: cell-based; conditions: pH 7.0
Description: as §1

Bacillus subtilis KY4273 = assay: Antibacterial activity, regular agar dilution, Bacillus subtilis KY4273; assay type: cell-based; conditions: pH 7.0
Description: as §1

SMILES	antibacterial activity (in words) [1]	MIC [2] [µg/mL]	MIC (Erwinia aroides KY3241) [µg/mL]	MIC (Vibrio percolans KY4174) [µg/mL]	MIC (Escherichia coli KY4271) [µg/mL]	MIC [3] [µg/mL]	MIC (Proteus vulgaris KY4277) [µg/mL]	MIC [4] [µg/mL]	MIC (Shigella sonnei KY4281) [µg/mL]	MIC (Bacillus subtilis KY4273) [µg/mL]
CC(=O)OCC1=C(C(=O)O)N2C(=O)C(NC(=O)Cc3cccs3)C2CC1 (racemic) [(±)-1-carbacephalotin]	having antibacterial activity	–	–	–	–	–	–	–	–	–
O=C(Cc1cccs1)NC1C(=O)N2C(C(=O)O)=CCCC12 (stereo not drawn) [Example 21, (±)-cis-2-carboxy-7-[2-(thiophene-2-yl)acetylamino]-1-azabicyclo[4,2,0]oct-2-en-8-one]	–	1 (≈ 3.26 µM)	1 (≈ 3.26 µM)	2 (≈ 6.53 µM)	8 (≈ 26.1 µM)	4 (≈ 13.1 µM)	8 (≈ 26.1 µM)	1 (≈ 3.26 µM)	8 (≈ 26.1 µM)	2 (≈ 6.53 µM)
